{"source": "patent US4183931A", "about": "“2-Ketoalkyl-4(3H)-quinazolinones” (Research Corporation, priority 1977, dated 1980)", "key": {"[1]": {"test": "NPP lethality (estimated LD50)", "settings": "mouse, in vivo, ip"}, "[2]": {"test": "NINCDS Subcutaneous Pentylenetetrazol (Metrazol) Seizure Threshold Test (scMet)", "assay_type": "in vivo, mice", "settings": "for minimal effective dose: sc, read-out: scMet: dosage level that elicited protection"}, "[3]": {"test": "NINCDS primary evaluation, overall classification", "assay_type": "in vivo, mice", "settings": "mouse, in vivo", "experimental": "1. Neurological Activity Tests. The biological testing program is designed to evaluate the following four aspects of drug action: (1) the existence and specificity of anticonvulsant activity; (2) the toxicity, particularly to the central nervous system; and, if the results of (1) and (2) are favorable, (3) the potency and protective index, a comparison between toxic and effective dose and (4) the time course of activity. Compounds were evaluated for anticonvulsant activity in two seizure models, the maximal electroshock seizure (MES) test and the subcutaneous pentylenetetrazol (Metrazol) seizure threshold (scMet) test.\nSpecific anticonvulsant evaluations performed by NINCDS using MES, scMet and Rotorod assays are presented in Tables III & IV for fourteen new compounds as well as several known compounds. Table III centers attention on 2-substituted-3-o-tolyl-4-(3H)-quinazolinones while Table IV includes the findings for various other 2,3-disubstituted-4(3H)-quinazolinones. As described earlier, the MES, scMet and Rotorod tests were performed one-half hour and four hours after administration of each compound. The tables identify the dosage level that elicited a positive result, such as protection against MES and scMet induced seizures, or loss of balance on the rotorod."}, "[4]": {"test": "NINCDS Maximal Electroshock Seizure Test (MES)", "assay_type": "in vivo, mice", "settings": "for minimal effective dose: read-out: MES: dosage level that elicited protection", "experimental": "1. Neurological Activity Tests. […] Compounds were evaluated for anticonvulsant activity in two seizure models, the maximal electroshock seizure (MES) test and the subcutaneous pentylenetetrazol (Metrazol) seizure threshold (scMet) test.\nThe Maximal Electroshock Seizure Test was performed according to the method described by Swinyard and coworkers,* wherein a drop of 0.9% saline is instilled in each eye prior to application of corneal electrodes. Seizures are elicited with a 50 Hz alternating current of 50 mA (5 to 7 times that necessary to elicit minimal electroshock seizures) delivered for 0.2 sec via corneal electrodes. This stimulus will produce a maximal seizure in all normal mice. The maximal seizure typically consists of a short period of initial tonic flexion and a prolonged period of hind limb tonic extension, followed by terminal clonus. The seizure lasts about 22 seconds. Abolition of the hind limb tonic extensor component of the seizure is defined as protection and indicates anticonvulsant activity in the test compound.\nThe ability of a compound to prevent maximal electroshock seizures is believed to correlate with its ability to prevent the spread of seizure discharge through neural tissue. Activity against maximal electroshock seizures is thought to indicate potential efficacy in the treatment of major motor (grand mal) seizures. […] Selective action in the test is believed to indicate potential efficacy against absence (petit mal) seizures.\nAs described earlier, the MES, scMet and Rotorod tests were performed one-half hour and four hours after administration of each compound.\nIn the Secondary Evaluation, median effective doses (ED50) are determined in the MES, scMet and Rotorod assays using the procedures defined in Pharmacology, 95, 99-113 (1949).\nSeparate groups of animals are used for each time period. The times of peak toxic and anticonvulsant effect are taken from the resulting graph of percent of animals responding vs. time, and the determinations of median effective doses are performed at those times."}, "[5]": {"test": "NPP maximal electroshock seizure (MES) protection", "assay_type": "in vivo, white male mice of the Carworth Farm Strain CF-1", "settings": "Mus musculus, ip; conducted at 30 mg/kg i.p."}, "[6]": {"settings": "Mus musculus, ip, secondary evaluation, at time of peak effect"}}, "data": [{"smiles": "O=C(Cc1nc2ccccc2c(=O)n1-c1ccccc1Cl)c1ccncc1", "note": "[IVd, 2-[2-Oxo-2-(4-pyridyl)ethyl]-3-o-chlorophenyl-4(3H)-quinazolinone]", "values": [{"measurement": "LD50 at 48 h", "setting": "[1]", "result": 237, "unit": "mg/kg"}, {"measurement": "ED50", "setting": "[2]; [6]", "result": 30.8, "unit": "mg/kg"}, {"measurement": "minimal effective dose", "setting": "[2]; Mus musculus, after 0.5 hr", "result": 30, "unit": "mg/kg"}, {"measurement": "minimal effective dose", "setting": "[2]; Mus musculus, after 4 hr (value in parentheses)", "result": 100, "unit": "mg/kg"}, {"measurement": "PI scMet (Protective Index = TD50/ED50)", "setting": "[2]; secondary evaluation", "result": 4.44}, {"measurement": "potency against scMet seizures compared with methaqualone", "setting": "[2]; secondary evaluation", "result": "more potent"}, {"measurement": "scMet protective index compared with Ethosuximide", "setting": "[2]; secondary evaluation", "result": "higher scMet protective index than Ethosuximide"}, {"measurement": "scMet protective index compared with methaqualone", "setting": "[2]; secondary evaluation", "result": "approximately four-fold higher"}, {"measurement": "scMet ED50 compared with commercial petit mal agents", "setting": "[2]; vs Ethotoin, Trimethadione, Paramethadione, Ethosuximide, Methsuximide, Phensuximide, Phenacamide (data of DHEW Publication No. (NIH) 76-1093)", "result": "lower ED50 in the scMet screen than the commercially available petit mal agents"}, {"measurement": "dosage for useful anticonvulsant activity relative to dosage for sedative-hypnotic activity", "setting": "[3]", "result": "fourfold lower"}, {"measurement": "minimal effective dose", "setting": "[4]; Mus musculus, ip, after 0.5 hr", "result": 300, "unit": "mg/kg"}, {"measurement": "minimal effective dose", "setting": "[4]; Mus musculus, ip, after 4 hr (value in parentheses)", "result": 100, "unit": "mg/kg"}, {"measurement": "ED50", "setting": "[4]; [6]", "result": 33.5, "unit": "mg/kg"}, {"measurement": "MES protective index compared with methaqualone", "setting": "[4]; secondary evaluation", "result": "approximately four-fold higher"}, {"measurement": "PI MES (Protective Index = TD50/ED50)", "setting": "[4]; secondary evaluation", "result": 4.08}, {"measurement": "potency against electroshock-induced (MES) seizures compared with methaqualone", "setting": "[4]; secondary evaluation", "result": "more potent"}, {"measurement": "MES protective index compared with commercial agents", "setting": "[4]; vs Ethotoin, Mephenytoin, Phenobarbital, Metharbital, Trimethadione, Paramethadione, Methsuximide, Phensuximide, Diazepam, Clonazepam", "result": "higher MES protective index"}, {"measurement": "responders at 30 mg/kg", "setting": "[5]", "result": 50, "unit": "%"}]}]}
